Each structure is given as a SMILES string.

The text below walks through data of patent publication US8802720B2, “Acylamino-substituted fused cyclopentanecarboxylic acid derivatives and their use as pharmaceuticals” (SANOFI, priority 2008, dated 2014).

Sequence of human Edg-2 receptor (LPA1 receptor) (Q92633 whole entry): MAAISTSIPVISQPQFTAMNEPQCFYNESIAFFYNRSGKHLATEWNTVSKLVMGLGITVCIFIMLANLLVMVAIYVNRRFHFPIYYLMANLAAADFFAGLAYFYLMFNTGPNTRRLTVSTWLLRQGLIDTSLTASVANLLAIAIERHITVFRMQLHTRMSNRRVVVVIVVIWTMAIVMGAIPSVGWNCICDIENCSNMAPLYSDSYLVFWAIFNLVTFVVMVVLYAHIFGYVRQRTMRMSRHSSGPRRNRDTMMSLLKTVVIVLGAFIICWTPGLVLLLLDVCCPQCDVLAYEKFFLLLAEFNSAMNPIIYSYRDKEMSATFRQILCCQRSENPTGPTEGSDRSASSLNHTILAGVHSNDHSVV

The experiment deals with human Edg-2 receptor (LPA1 receptor) (Homo sapiens, UniProt Q92633). The experiment in a line: Edg-2 receptor inhibition by FLIPR calcium fluorescence measurement (LPA-mediated calcium liberation). In kind it is cell-based. The settings on record: CHO cells stably overexpressing human Edg-2 receptor; LPA 18:1 100 nM; fluo-4 fluorescence; triplicate; read-out: Inhibitory concentrations IC50 for inhibition of the Edg-2 receptor. As for the experimental part:
A) Determination of Edg-2 Receptor Inhibition by Fluorescence Imaging Plate Reader (FLIPR) Measurements
The inhibition of the Edg-2 receptor (LPA1 receptor) by the compounds of the invention was quantified by the inhibitory effect on the LPA-mediated calcium liberation in a cell-based calcium fluorescence assay by use of Chinese hamster ovarian (CHO) cells in which the human Edg-2 receptor was stably overexpressed (FIp-In system, Invitrogen). […] Changes in intracellular calcium were determined by fluorescence measurement with the calcium-sensitive dye fluo-4 (Invitrogen) in a fluorescence imaging plate reader (FLIPR, […]).
CHO cells stably overexpressing the human Edg-2 receptor were seeded (40.000 per well) in black clear-bottomed poly-D-lysine-coated 96 well plates (Becton Dickinson, Biocoat cellware) approximately 18-24 h prior to the experiments. Cells were grown in an incubator at 37° C., 5% carbon dioxide and 95% humidity in cell culture media based on F-12 glutamax media (Gibco, #31765) supplemented with 1% (vol/vol) penicilline/streptomycine (PAN, #P06-07100), 10% (vol/vol) fetal calf serum (FCS, PAA, #A15-151) and hygromycin B (Invitrogen, #10687-010) 300 mg/l (final concentrations).
Prior to the FLIPR experiment, cells were loaded with fluo-4 acetoxymethyl ester (fluo-4 AM, Invitrogen, #F14202) for 60 min in an incubator at 37° C., 5% carbon dioxide and 95% humidity in dye-loading buffer consisting of Hanks' Balanced Salt Solution (HBSS, Invitrogen, #14065049) supplemented with fluo-4 AM at 2 μM (all data given for final concentration), Pluronic® F-127 0.05% (vol/vol) (Invitrogen, #P-3000 MP), HEPES 20 mM (Gibco, #15630), probenecid 2.5 mM (Sigma, #P-8761) and bovine serum albumin 0.05% (BSA, Sigma, #A-6003), adjusted to pH 7.5 with sodium hydroxide. During cell loading, fluo-4 AM is cleaved by intracellular esterase resulting in trapping of the dye fluo-4 within the cells. Loading was terminated by washing of the cells in a cell washer (Tecan Power washer) three times with the buffer specified afore but without fluo-4 AM and BSA. This latter buffer was also used as the buffer in the subsequent cell fluorescence measurements.
The dye-loaded and washed cells were pre-incubated for approximately 5 min with various concentrations of the test compound added as a solution in DMSO (0.3% vol/vol maximum final concentration of DMSO), or with DMSO in the respective concentration only (positive control). Subsequent addition of LPA (18:1, 1-oleoyl-sn-glycerol 3-phosphate; 100 nM final concentration) leads to liberation of intracellular calcium from internal stores resulting in a large transient increase of the fluo-4 fluorescence signal which was monitored over approximately 3 min. The percent inhibition caused by the test compound was determined from the maximum fluorescence response after LPA addition to cells pre-incubated with the compound as compared to the maximum fluorescence response after LPA addition to cells pre-incubated with DMSO only. All fluorescence values were corrected for the baseline fluorescence values obtained with cells which were pre-incubated with DMSO only and were not treated with LPA (baseline control). All measurements were performed in triplicate. From the percent inhibitions the inhibitory concentration IC50 was determined.
Turning to `COc1ccc(C(=O)NC2(C(=O)O)Cc3ccccc3C2)cc1-c1cncc(Cl)c1` [Example 282, 2-[3-(5-chloro-pyridin-3-yl)-4-methoxy-benzoylamino]-indane-2-carboxylic acid], the IC50 is 0.1 to 1 µM.

Turning to `COc1ccc(C(=O)NC2(C(=O)O)Cc3ccccc3C2)cc1OS(=O)(=O)c1ccccc1` [Example 109, 2-(3-Benzenesulfonyloxy-4-methoxy-benzoylamino)-indane-2-carboxylic acid], the IC50 was in the range of 1 to 30 µM.

With `COc1ncc(C(=O)NC2(C(=O)O)Cc3ccccc3C2)cc1-c1cccc(Cl)c1` [Example 223], the IC50 was less than 0.1 µM.

For `COc1ccc(C(=O)NC2(C(=O)O)Cc3ccccc3C2)cc1-c1ccc(F)c(C(F)(F)F)c1` [Example 345], the IC50 was less than 0.1 µM.

On to `CCOC(=O)N1CCN(CCOc2cc(C(=O)NC3(C(=O)O)Cc4ccccc4C3)ccc2OC)CC1` [Example 67], for which the IC50 was 1 to 30 µM.

With `COc1ccc(C(=O)NC2(C(=O)O)Cc3ccccc3C2)cc1C#Cc1ccc(C(F)(F)F)cc1` [Example 194, 2-[4-Methoxy-3-(4-trifluoromethyl-phenylethynyl)-benzoylamino]-indane-2-carboxylic acid], the IC50 was 1 to 30 µM.

As for `COc1ccc(C(=O)NC2(C(=O)O)Cc3ccccc3C2)cc1Oc1cccc(C)c1` [Example 239, 2-(4-Methoxy-3-m-tolyloxy-benzoylamino)-indane-2-carboxylic acid], the IC50 is 1 to 30 µM.

On to `COc1ccc(C(=O)NC2(C(=O)O)Cc3ccccc3C2)cc1-c1cc(Cl)cc(C)c1F` [Example 333], for which the IC50 is less than 0.1 µM.

As for `Cc1cccc(CCOc2cc(C(=O)NC3(C(=O)O)Cc4ccccc4C3)ccc2OCCOC(C)(C)C)c1` [Example 259], the IC50 was less than 0.1 µM.

Regarding `Cc1cccc(CCOc2cc(C(=O)NC3(C(=O)O)Cc4ccccc4C3)ccc2Br)c1` [Example 2, 2-[4-Bromo-3-(2-m-tolyl-ethoxy)-benzoylamino]-indane-2-carboxylic acid], the IC50 is less than 0.1 µM.

On to `COc1ccc(C(=O)NC2(C(=O)O)Cc3ccccc3C2)cc1OCCc1cccc(C(F)(F)F)c1` [Example 127, 2-{4-methoxy-3-[2-(3-trifluoromethyl-phenyl)-ethoxy]-benzoylamino}-indane-2-carboxylic acid], for which the IC50 was less than 0.1 µM.

In the case of `COCc1ccccc1-c1cc(C(=O)NC2(C(=O)O)Cc3ccccc3C2)ccc1OC` [Example 316], the IC50 is 0.1 to 1 µM.

Consider `COc1ccc(C(=O)NC2(C(=O)O)Cc3ccccc3C2)cc1OCC(F)(F)c1cccc(Cl)c1` [Example 212, 2-{3-[2-(3-Chloro-phenyl)-2,2-difluoro-ethoxy]-4-methoxy-benzoylamino}-indane-2-carboxylic acid], for which the IC50 was less than 0.1 µM.

Turning to `COc1ccc(C(=O)NC2(C(=O)O)Cc3ccccc3C2)cc1-c1cccc(Cl)c1` [Example 198], the IC50 was less than 0.1 µM.

Turning to `CCCc1ccc(-c2cc(C(=O)NC3(C(=O)O)Cc4ccccc4C3)ccc2OC)cc1` [Example 290], the IC50 lay within 1 to 30 µM.

Consider `COc1ccc(C(=O)NC2(C(=O)O)Cc3ccccc3C2)cc1OCCc1cccc(S(C)(=O)=O)c1` [Example 18, 2-{3-[2-(3-Methanesulfonyl-phenyl)-ethoxy]-4-methoxy-benzoylamino}-indane-2-carboxylic acid], for which the IC50 is 1 to 30 µM.

Take `COc1ccc(C(=O)NC2(C(=O)O)Cc3ccccc3C2O)cc1OCCc1cccc(C)c1` (single isomer, unassigned) [Example 220, 1-Hydroxy-2-[4-methoxy-3-(2-m-tolyl-ethoxy)-benzoylamino]-indane-2-carboxylic acid]: the IC50 is less than 0.1 µM.

Regarding `COc1ccc(C(=O)NC2(C(=O)O)Cc3ccccc3C2)cc1OCCc1cccc(C#N)c1` [Example 94, 2-{3-[2-(3-Cyano-phenyl)-ethoxy]-4-methoxy-benzoylamino}-indane-2-carboxylic acid], the IC50 was less than 0.1 µM.

As to `COc1ccc(C(=O)NC2(C(=O)O)Cc3ccccc3C2)cc1OCCc1ccsc1` [Example 146], the IC50 is 0.1 to 1 µM.

`COc1ccc(C(=O)NC2(C(=O)O)Cc3ccccc3C2)cc1-c1cc(Cl)ccc1C(F)(F)F` [Example 351]: the IC50 was less than 0.1 µM.

In the case of `COc1ccc(C(=O)NC2(C(=O)O)Cc3ccccc3C2)cc1OCC1CCC(C(=O)O)C1` (centres unmarked) [Example 78], the IC50 fell in the range of 1 to 30 µM.

In the case of `COc1ccc(C(=O)NC2(C(=O)O)Cc3ccccc3C2)cc1OCCc1cc(C)ccc1F` [Example 20], the IC50 was less than 0.1 µM.

For the compound `Cc1cccc(CCNc2cc(C(=O)NC3(C(=O)O)Cc4ccccc4C3)ccc2C#N)c1` [Example 173, 2-[4-Cyano-3-(2-m-tolyl-ethylamino)-benzoylamino]-indane-2-carboxylic acid], the IC50 was in the range of 1 to 30 µM.

For the compound `COc1ccc(C(=O)NC2(C(=O)O)Cc3ccccc3C2)cc1OCc1ccc(Cl)cc1` [Example 39], the IC50 was in the range of 1 to 30 µM.

With `COc1ccc(C(=O)NC2(C(=O)O)Cc3ccccc3C2)cc1Cc1cccc(C)c1` [Example 244, 2-[4-Methoxy-3-(3-methyl-benzyl)-benzoylamino]-indane-2-carboxylic acid], the IC50 was in the range of 0.1 to 1 µM.

`COc1ccc(C(=O)NC2(C(=O)O)Cc3ccccc3C2)cc1OCCc1cccc(CCN)c1` [Example 246, 2-(3-{2-[3-(2-Amino-ethyl)-phenyl]-ethoxy}-4-methoxy-benzoylamino)-indane-2-carboxylic acid]: the IC50 was in the range of 1 to 30 µM.

Take `COc1ccc(C(=O)NC2(C(=O)O)Cc3nccnc3C2)cc1OCCc1cccc(C)c1` [Example 207, 6-[4-Methoxy-3-(2-m-tolyl-ethoxy)-benzoylamino]-6,7-dihydro-5H-cyclopentapyrazine-6-carboxylic acid]: the IC50 lay in the range of 1 to 30 µM.

As for `CCS(=O)(=O)c1cccc(-c2cc(C(=O)NC3(C(=O)O)Cc4ccccc4C3)cc(F)c2OC)c1` [Example 357, 2-[(3′-Ethanesulfonyl-5-fluoro-6-methoxy-biphenyl-3-carbonyl)-amino]-indane-2-carboxylic acid], the IC50 is less than 0.1 µM.

`COc1ccc(C(=O)NC2(C(=O)O)Cc3ccccc3C2)cc1OCc1cn(-c2ccccc2)nn1` [Example 79]: the IC50 was 1 to 30 µM.

As to `COc1ccc(C(=O)NC2(C(=O)O)Cc3ccccc3C2)cc1OCCC1=CC[C@H]2C[C@@H]1C2(C)C` [Example 81], the IC50 was less than 0.1 µM.

As for `COc1ccc(C(=O)NC2(C(=O)O)Cc3ccccc3C2)cc1OCCc1nonc1C` [Example 353], the IC50 is 1 to 30 µM.

With `COc1c(F)cc(C(=O)NC2(C(=O)O)Cc3ccccc3C2)cc1-c1cccc(C(C)C)c1` [Example 360, 2-[(5-fluoro-3′-isopropyl-6-methoxy-biphenyl-3-carbonyl)-amino]-indane-2-carboxylic acid], the IC50 was less than 0.1 µM.

Consider `COc1ccc(-c2cc(C(=O)NC3(C(=O)O)Cc4ccccc4C3)ccc2OC)cc1Cl` [Example 325], for which the IC50 is less than 0.1 µM.

`COc1ccc(C(=O)NC2(C(=O)O)Cc3ccccc3C2)cc1OCCc1cccc(C(C)(CO)CO)c1` [Example 210, 2-(3-{2-[3-(2-Hydroxy-1-hydroxymethyl-1-methyl-ethyl)-phenyl]-ethoxy}-4-methoxy-benzoylamino)-indane-2-carboxylic acid]: the IC50 was 0.1 to 1 µM.

With `COc1ccc(C(=O)NC2(C(=O)O)Cc3ccccc3C2)cc1-c1ccc(OC(C)C)c(C)c1` [Example 341], the IC50 was in the range of 1 to 30 µM.
